Assay results from patent publication US6653081B2, “Methods for monitoring antiretroviral therapy and guiding therapeutic decision in the treatment of HIV/AIDS” (ViroLogic, Inc., priority 2000, dated 2003).
Where “and” joins values, the source holds several entries; their conditions need not be identical. Equal values may be shown once.

Assays:
[1] = tested on: RTV-1033-3/106V/189V/227F; test: Phenotypic susceptibility assay, RTV-1033-3/106V/189V/227F; assay type: cell-based, HIV; settings: RTV-1033-3 with V106A, V189L and F227L reverted
Source text: (§1) The resistance test vectors containing a functional luciferase gene cassette were constructed and host cells were transfected with the resistance test vector DNA. The resistant test vectors contained patient-derived reverse transcriptase and protease sequences that were either susceptible or resistant to the antiretroviral agents, such as nucleoside reverse transcriptase inhibitors, (NRTIs) non-nucleoside reverse transcriptase inhibitors […] protease inhibitors. The resistance test vector viral particles produced by transfecting the resistance test vector DNA into host cells, either in the presence or absence of PRIs, were used to infect target host cells grown either in the absence of NRTIs or NNRTIs, or in the presence of increasing concentrations of the drug. The amount of luciferase activity produced in infected target host cells in the presence of varying concentrations of drug was compared to the amount of luciferase produced in infected target host cells in the absence of drug. “Drug resistance” was measured as the amount of drug required to inhibit by 50% the luciferase activity detected in the absence of drug (inhibitory concentration 50%, IC50). The IC50 values were determined by plotting percent drug inhibition vs. log10 drug concentration. Stimulation of viral replication was measured as the percent increase in luciferase activity detected when infection occurs in the presence of drug as compared to in the absence of drug.
(§2) Host cells were seeded in 10-cm-diameter dishes and were transfected several days after plating with resistance test vector plasmid DNA and the envelope expression vector. Transfections were performed using a calcium-phosphate precipitation procedure. The cell culture media containing the DNA precipitate was replaced with fresh medium, from one to 24 hours, after transfection. Cell culture media containing resistance test vector viral particles was harvested one to four days after transfection and was passed through a […] filter before being used to infect target host cells, or being stored at −80° C. HIV capsid protein (p24) levels in the harvested cell culture media were determined by an EIA method as described by the manufacturer (SAIC; Frederick, Md.). Before infection, target cells (293 and 293/T) were plated in cell culture media. Control infections were performed using cell culture media from mock transfections (no DNA) or transfections containing the resistance test vector plasmid DNA without the envelope expression plasmid. One to three or more days after infection, the media was removed and cell lysis buffer (Promega) was added to each well. Cell lysates were assayed for luciferase activity (FIG. 3). The inhibitory effect of the drug was determined using the following equation:
(§3) % luciferase inhibition=1−(RLUluc[drug]÷RLUluc)×100
(§4) where RLUluc [drug] is the Relative Light Unit of luciferase activity in infected cells in the presence of drug, and RLUluc is the Relative Light Unit of luciferase activity in infected cells in the absence of drug. IC50values were obtained from the sigmoidal curves that were generated from the data by plotting the percent inhibition of luciferase activity vs. the log10 drug concentration. The percent luciferase stimulation is the negative of the % inhibition calculated using the formula above.
A resistance test vector containing all of the mutations present in RTV-1033-3 except for V106A, V189L and F227L (RTV-1033-3/106V/189V/227F) was constructed and tested using the phenotypic assay described earlier. The results were compared to those determined using the parent RTV-1033-3. We determined the pattern of phenotypic susceptibility to the NNRTIs, delavirdine, nevirapine and efavirenz, in the reverted vector, RTV-1033-3/106V/189V/227F.

[2] = tested on: RTV-309-3; test: Phenotypic susceptibility assay, RTV-309-3; assay type: cell-based, HIV; settings: single clone from the RTV-309 pool
Source text: The resistance test vectors containing a functional luciferase gene cassette were constructed and host cells were transfected with the resistance test vector DNA. The resistant test vectors contained patient-derived reverse transcriptase and protease sequences that were either susceptible or resistant to the antiretroviral agents, such as nucleoside reverse transcriptase inhibitors, (NRTIs) non-nucleoside reverse transcriptase inhibitors […] protease inhibitors. The resistance test vector viral particles produced by transfecting the resistance test vector DNA into host cells, either in the presence or absence of PRIs, were used to infect target host cells grown either in the absence of NRTIs or NNRTIs, or in the presence of increasing concentrations of the drug. The amount of luciferase activity produced in infected target host cells in the presence of varying concentrations of drug was compared to the amount of luciferase produced in infected target host cells in the absence of drug. […] The IC50 values were determined by plotting percent drug inhibition vs. log10 drug concentration. Stimulation of viral replication was measured as the percent increase in luciferase activity detected when infection occurs in the presence of drug as compared to in the absence of drug.
Host cells were seeded in 10-cm-diameter dishes and were transfected several days after plating with resistance test vector plasmid DNA and the envelope expression vector. […] HIV capsid protein (p24) levels in the harvested cell culture media were determined by an EIA method as described by the manufacturer (SAIC; Frederick, Md.). […] The inhibitory effect of the drug was determined using the following equation: […]
where RLUluc [drug] is the Relative Light Unit of luciferase activity in infected cells in the presence of drug, and RLUluc is the Relative Light Unit of luciferase activity in infected cells in the absence of drug. […] The percent luciferase stimulation is the negative of the % inhibition calculated using the formula above. […]

[3] = tested on: RTV-013415; test: Phenotypic susceptibility assay, RTV-013415; assay type: cell-based, HIV; settings: patient 013415; for decrease in susceptibility: V245M with multiple other mutations
Source text: as §1, §2, §3, §4
A resistance test vector was constructed as described in Example 1 from a virus sample obtained from patient 013415. The prior and current treatment regimens are unknown. Isolation of viral RNA and RT/PCR was used to generate a patient derived segment (PDS) that comprised viral sequences coding for all of PR and aa 1-313 of RT. The PDS were inserted into an indicator gene viral vector to generate a resistance test vector designated RTV-013415. RTV-013415 was then tested in a phenotypic assay to determine accurately and quantitatively the level of susceptibility to a panel of anti-retroviral drugs. […]

[4] = tested on: RTV-I135T/V245E; test: Phenotypic susceptibility assay, RTV-I135T/V245E; assay type: cell-based, HIV-1; settings: site-directed I135T + V245E
Source text: as §1, §2, §3, §4
A resistance test vector containing two mutations, I135T and V245E (RTV-I135T/V245E) was constructed and tested in the phenotypic assay described earlier. The results were compared to those determined using a genetically defined resistance test vector that was wild type at positions 135 and 245. We determined the pattern of phenotypic susceptibility to the NNRTIs, delavirdine, nevirapine and efavirenz, in RTV-I135T/V245E.

[5] = tested on: RTV-1033-3; test: Phenotypic susceptibility assay, RTV-1033-3; assay type: cell-based, HIV; settings: single clone from the RTV-1033 pool
Source text: as §1, §2, §3, §4
A single clone (RTV-1033-3) was obtained from the patient-derived RTV pool that had mutations and phenotypic patterns of NNRTI susceptibility and drug-dependent stimulation of viral replication characteristic of the RTV-1033 pool. The RTV-1033-3 had the following mutations present in the revere transcriptase: V35I, D67N, T69D, K70R, V106A, D123G, V189L, T200A, I202T, H208Y, R211K, T215F, D218E, K219Q, H221Y, L228H, L283I, R284K, T286A, V293I and E297K.

[6] = tested on: M230L-RTV; test: Phenotypic susceptibility assay, M230L-RTV; assay type: cell-based, HIV-1; settings: site-directed M230L alone
Source text: as §1, §2, §3, §4
The M230L mutation was introduced into a wild-type (drug sensitive) resistance test vector using the mega-primer method for site-directed mutagenesis (Sakar and Sommar, Ibid.). The resulting resistance test vector containing the M230L mutation (M230L-RTV) was then tested using the phenotypic assay described earlier, and the results were compared to those determined using a genetically defined resistance test vector that was wild type at position 230. We determined the pattern of phenotypic susceptibility to the NNRTIs, delavirdine, nevirapine and efavirenz, in the M230L-RTV. […]

Structure (SMILES)	drug-dependent stimulation of viral replication [1]	reductions in susceptibility compared to wild type control RTV [1]	reduction in susceptibility [2]	drug-dependent stimulation of viral replication [3]	decrease in susceptibility [3]	drug-dependent stimulation of viral replication [4]	reductions in susceptibility compared to wild type control RTV [4]	drug-dependent stimulation of viral replication [5]	reductions in susceptibility [5]	drug-dependent stimulation of viral replication [6]	reduction in susceptibility compared to wild type control RTV [6]
CC(C)Nc1cccnc1N1CCN(C(=O)c2cc3cc(NS(C)(=O)=O)ccc3[nH]2)CC1 [delavirdine]	~35%	2.7 fold	wild type pattern of susceptibility	~30%	> 250 fold	no drug-dependent stimulation	2 fold	190%	27 fold	~50%	58 fold
O=C1Nc2ccc(Cl)cc2[C@@](C#CC2CC2)(C(F)(F)F)O1 [efavirenz]	~30%	2 fold	wild type pattern of susceptibility	~20%	> 450 fold	no drug-dependent stimulation	2 fold	180%	> 450 fold	not	23 fold
Cc1ccnc2c1NC(=O)c1cccnc1N2C1CC1 [nevirapine]	~40%	2.8 fold	3 fold	~20%	> 600 fold	no drug-dependent stimulation	2.5 fold	200%	> 600 fold	~50%	39 fold and 40 fold
